Columns and labels:
Assay in all cases: cells
Assay type in all cases: functional, cell-based, Homo sapiens
[1] = tested on: CTV-1; details: Homo sapiens, CTV-1;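 further: growth inhibition of the cell line, read out with a cell viability assay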
Description: SANGER: Inhibition of human CTV-1 cell growth in a cell viability assay.

[2] = tested on: CW-2; details: Homo sapiens, CW-2;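 further: growth inhibition of CW-2 cells, read out by a cell viability assay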
Description: SANGER: Inhibition of human CW-2 cell growth in a cell viability assay.

[3] = tested on: D-263MG; details: Homo sapiens, D-263MG
Description: SANGER: Inhibition of human D-263MG cell growth in a cell viability assay.

[4] = tested on: DEL; details: Homo sapiens, DEL;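 further: growth inhibition of the human DEL cell line, read out with a cell viability assay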
Description: SANGER: Inhibition of human DEL cell growth in a cell viability assay.

[5] = tested on: DMS-79; details: Homo sapiens, DMS-79;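 further: growth inhibition measured with a cell viability assay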
Description: SANGER: Inhibition of human DMS-79 cell growth in a cell viability assay.

[6] = tested on: EKVX; details: Homo sapiens, EKVX;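 further: growth inhibition of human EKVX cells, read out with a cell viability assay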
Description: SANGER: Inhibition of human EKVX cell growth in a cell viability assay.

[7] = tested on: EW-1; details: Homo sapiens, EW-1;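 further: growth inhibition of the human EW-1 cell line, read out by a cell viability assay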
Description: SANGER: Inhibition of human EW-1 cell growth in a cell viability assay.

[8] = tested on: EW-13; details: Homo sapiens, EW-13;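 further: growth inhibition of EW-13 cells, read out with a cell viability assay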
Description: SANGER: Inhibition of human EW-13 cell growth in a cell viability assay.

[9] = tested on: EOL1; details: Homo sapiens, EOL1;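 further: growth inhibition of EoL-1 cells, read out by a cell viability assay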
Description: SANGER: Inhibition of human EoL-1-cell cell growth in a cell viability assay.

[10] = tested on: GI-ME-N; details: Homo sapiens, GI-ME-N;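 further: growth inhibition of human GI-ME-N cells, read out with a cell viability assay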
Description: SANGER: Inhibition of human GI-ME-N cell growth in a cell viability assay.

[11] = tested on: GT3TKB; details: Homo sapiens, GT3TKB;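 further: growth inhibition of the cell line, read out with a cell viability assay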
Description: SANGER: Inhibition of human GT3TKB cell growth in a cell viability assay.

[12] = tested on: HOP-62; details: Homo sapiens, HOP-62;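 further: cell growth inhibition determined with a viability assay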
Description: SANGER: Inhibition of human HOP-62 cell growth in a cell viability assay.

[13] = tested on: HT-144; details: Homo sapiens, HT-144
Description: SANGER: Inhibition of human HT-144 cell growth in a cell viability assay.

[14] = tested on: IST-MES1; details: Homo sapiens, IST-MES1;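 further: growth inhibition of IST-MES1 cells, measured with a cell viability assay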
Description: SANGER: Inhibition of human IST-MES1 cell growth in a cell viability assay.

[15] = tested on: J-RT3-T3-5; details: Homo sapiens, J-RT3-T3-5;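 further: cell viability assay measuring growth inhibition of human J-RT3-T3-5 cells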
Description: SANGER: Inhibition of human J-RT3-T3-5 cell growth in a cell viability assay.

[16] = tested on: KG-1; details: Homo sapiens, KG-1;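 further: growth inhibition of KG-1 cells, read out by a cell viability assay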
Description: SANGER: Inhibition of human KG-1 cell growth in a cell viability assay.

[17] = tested on: KINGS-1; details: Homo sapiens, KINGS-1;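 further: cell viability assay measuring suppression of KINGS-1 cell growth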
Description: SANGER: Inhibition of human KINGS-1 cell growth in a cell viability assay.

[18] = tested on: KMOE-2; details: Homo sapiens, KMOE-2;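 further: growth inhibition of human KMOE-2 cells, read out with a cell viability assay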
Description: SANGER: Inhibition of human KMOE-2 cell growth in a cell viability assay.

[19] = tested on: KURAMOCHI; details: Homo sapiens, KURAMOCHI;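 further: growth inhibition of KURAMOCHI cells, read out with a cell viability assay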
Description: SANGER: Inhibition of human KURAMOCHI cell growth in a cell viability assay.

[20] = tested on: LAMA-84; details: Homo sapiens, LAMA-84;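 further: growth inhibition of LAMA-84 cells, read out with a cell viability assay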
Description: SANGER: Inhibition of human LAMA-84 cell growth in a cell viability assay.

[21] = tested on: LB373-MEL-D; details: Homo sapiens, LB373-MEL-D;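 further: growth inhibition of the cell line, read out in a cell viability assay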
Description: SANGER: Inhibition of human LB373-MEL-D cell growth in a cell viability assay.

[22] = tested on: LXF-289 cell line; details: Homo sapiens, LXF-289
Description: SANGER: Inhibition of human LXF-289 cell growth in a cell viability assay.

[23] = tested on: MFM-223; details: Homo sapiens, MFM-223
Description: SANGER: Inhibition of human MFM-223 cell growth in a cell viability assay.

[24] = tested on: MHH-PREB-1; details: Homo sapiens, MHH-PREB-1;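 further: cell viability assay measuring inhibition of proliferation of human MHH-PREB-1 cells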
Description: SANGER: Inhibition of human MHH-PREB-1 cell growth in a cell viability assay.

[25] = tested on: MLMA; details: Homo sapiens, MLMA;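 further: growth inhibition of MLMA cells (human), determined through a cell viability readout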
Description: SANGER: Inhibition of human MLMA cell growth in a cell viability assay.

[26] = tested on: MOLT-4; details: Homo sapiens, MOLT-4;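 further: growth inhibition of MOLT-4 cells, determined with a cell viability readout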
Description: SANGER: Inhibition of human MOLT-4 cell growth in a cell viability assay.

[27] = tested on: MS-1; details: Homo sapiens, MS-1;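 further: growth inhibition of MS-1 cells, read out by cell viability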
Description: SANGER: Inhibition of human MS-1 cell growth in a cell viability assay.

[28] = tested on: NB13; details: Homo sapiens, NB13;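 further: cell viability readout measuring growth inhibition of human NB13 cells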
Description: SANGER: Inhibition of human NB13 cell growth in a cell viability assay.

[29] = tested on: NCI-H1355; details: Homo sapiens, NCI-H1355;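 further: growth inhibition of human NCI-H1355 cells, read out by a cell viability assay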
Description: SANGER: Inhibition of human NCI-H1355 cell growth in a cell viability assay.

[30] = tested on: NCI-H1770; details: Homo sapiens, NCI-H1770;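 further: growth inhibition of NCI-H1770 cells determined with a viability readout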
Description: SANGER: Inhibition of human NCI-H1770 cell growth in a cell viability assay.

[31] = tested on: OCI-AML2; details: Homo sapiens, OCI-AML2;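 further: growth inhibition of OCI-AML2 cells, read out with a cell viability assay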
Description: SANGER: Inhibition of human OCI-AML2 cell growth in a cell viability assay.

[32] = tested on: OS-RC-2; details: Homo sapiens, OS-RC-2;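 further: growth inhibition of human OS-RC-2 cells, measured by a cell viability assay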
Description: SANGER: Inhibition of human OS-RC-2 cell growth in a cell viability assay.

[33] = tested on: PSN1; details: Homo sapiens, PSN1;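 further: suppression of growth of human PSN1 cells, read out by a cell viability assay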
Description: SANGER: Inhibition of human PSN1 cell growth in a cell viability assay.

[34] = tested on: QIMR-WIL; details: Homo sapiens, QIMR-WIL;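 further: growth inhibition of QIMR-WIL cells, read out with a cell viability assay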
Description: SANGER: Inhibition of human QIMR-WIL cell growth in a cell viability assay.

[35] = tested on: RKO; details: Homo sapiens, RKO;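 further: growth inhibition of human RKO cells, read out with a cell viability assay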
Description: SANGER: Inhibition of human RKO cell growth in a cell viability assay.

[36] = tested on: RPMI-8226; details: Homo sapiens, RPMI-8226
Description: SANGER: Inhibition of human RPMI-8226 cell growth in a cell viability assay.

[37] = tested on: SCC-15; details: Homo sapiens, SCC-15;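 further: growth inhibition of SCC-15 cells, read out with a cell viability assay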
Description: SANGER: Inhibition of human SCC-15 cell growth in a cell viability assay.

[38] = tested on: SK-LMS-1; details: Homo sapiens, SK-LMS-1;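 further: growth inhibition of human SK-LMS-1 cells, read out with a cell viability assay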
Description: SANGER: Inhibition of human SK-LMS-1 cell growth in a cell viability assay.

[39] = tested on: SK-NEP-1; details: Homo sapiens, SK-NEP-1;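 further: growth inhibition of human SK-NEP-1 cells, read out by a cell viability assay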
Description: SANGER: Inhibition of human SK-NEP-1 cell growth in a cell viability assay.

[40] = tested on: SNU-C2B; details: Homo sapiens, SNU-C2B;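 further: cell viability readout used to measure compound-driven suppression of SNU-C2B cell proliferation, IC50 marking half-maximal growth inhibition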
Description: SANGER: Inhibition of human SNU-C2B cell growth in a cell viability assay.

[41] = tested on: SW 962; details: Homo sapiens, SW 962;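 further: growth inhibition of human SW962 cells, read out by a cell viability assay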
Description: SANGER: Inhibition of human SW962 cell growth in a cell viability assay.

[42] = tested on: SW982; details: Homo sapiens, SW982;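 further: growth inhibition of SW982 cells, read out with a cell viability assay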
Description: SANGER: Inhibition of human SW982 cell growth in a cell viability assay.

[43] = tested on: A101D; details: Homo sapiens, A101D;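 further: growth inhibition of the cell line, measured with a viability assay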
Description: SANGER: Inhibition of human A101D cell growth in a cell viability assay.

[44] = tested on: A704; details: Homo sapiens, A704;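 further: growth inhibition of human A704 cells, read out with a cell viability assay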
Description: SANGER: Inhibition of human A704 cell growth in a cell viability assay.

[45] = tested on: BB65-RCC; details: Homo sapiens, BB65-RCC;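 further: growth inhibition of the cell line, measured with a cell viability assay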
Description: SANGER: Inhibition of human BB65-RCC cell growth in a cell viability assay.

[46] = tested on: BT-474; details: Homo sapiens, BT-474
Description: SANGER: Inhibition of human BT-474 cell growth in a cell viability assay.

[47] = tested on: Becker; details: Homo sapiens, Becker;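 further: growth inhibition of Becker cells, read out with a cell viability assay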
Description: SANGER: Inhibition of human Becker cell growth in a cell viability assay.

[48] = tested on: TE-6; details: Homo sapiens, TE-6;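 further: growth inhibition of TE-6 cells, read out with a cell viability assay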
Description: SANGER: Inhibition of human TE-6 cell growth in a cell viability assay.

COc1cc(-c2nn([C@H]3CC[C@H](N4CCN(C(C)=O)CC4)CC3)c3ncnc(N)c23)ccc1NC(=O)c1cc2ccccc2n1C
IC50 [1]: < 20 nM
IC50 [2]: > 5120 nM
IC50 [3]: > 5120 nM
IC50 [4]: > 5120 nM
IC50 [5]: > 5120 nM
IC50 [6]: > 5120 nM
IC50 [7]: > 5120 nM
IC50 [8]: > 5120 nM
IC50 [9]: 4550 nM
IC50 [10]: 2290 nM
IC50 [11]: > 5120 nM
IC50 [12]: 475 nM
IC50 [13]: > 5120 nM
IC50 [14]: 1400 nM
IC50 [15]: > 5120 nM
IC50 [16]: > 5120 nM
IC50 [17]: > 5120 nM
IC50 [18]: > 5120 nM
IC50 [19]: 896 nM
IC50 [20]: 147 nM
IC50 [21]: > 5120 nM
IC50 [22]: 757 nM
IC50 [23]: > 5120 nM
IC50 [24]: 4850 nM
IC50 [25]: 209 nM
IC50 [26]: > 5120 nM
IC50 [27]: > 5120 nM
IC50 [28]: > 5120 nM
IC50 [29]: > 5120 nM
IC50 [30]: > 5120 nM
IC50 [31]: 5100 nM
IC50 [32]: 755 nM
IC50 [33]: 1140 nM
IC50 [34]: 2870 nM
IC50 [35]: 3460 nM
IC50 [36]: > 5120 nM
IC50 [37]: > 5120 nM
IC50 [38]: > 5120 nM
IC50 [39]: > 5120 nM
IC50 [40]: > 5120 nM
IC50 [41]: > 5120 nM
IC50 [42]: 387 nM
IC50 [43]: 3710 nM
IC50 [44]: 1150 nM
IC50 [45]: 5060 nM
IC50 [46]: > 5120 nM
IC50 [47]: 4210 nM
IC50 [48]: > 5120 nM

OCCCNc1cc(-c2ccnc(Nc3cccc(Cl)c3)n2)ccn1
IC50 [1]: 66 nM
IC50 [2]: > 256 nM
IC50 [3]: > 256 nM
IC50 [4]: 25.8 nM
IC50 [5]: > 256 nM
IC50 [6]: > 256 nM
IC50 [7]: 45.8 nM
IC50 [8]: > 256 nM
IC50 [9]: > 256 nM
IC50 [10]: 105 nM
IC50 [11]: 59 nM
IC50 [12]: 41.2 nM
IC50 [13]: 20.6 nM
IC50 [14]: 135 nM
IC50 [15]: 83.2 nM
IC50 [16]: > 256 nM
IC50 [17]: 103 nM
IC50 [18]: > 256 nM
IC50 [19]: 59.8 nM
IC50 [20]: 203 nM
IC50 [21]: 209 nM
IC50 [22]: 164 nM
IC50 [23]: > 256 nM
IC50 [24]: 58.4 nM
IC50 [25]: 57.4 nM
IC50 [26]: > 256 nM
IC50 [27]: 196 nM
IC50 [28]: 126 nM
IC50 [29]: 24.9 nM
IC50 [30]: > 256 nM
IC50 [31]: 62.6 nM
IC50 [32]: 82.9 nM
IC50 [33]: 15.2 nM
IC50 [34]: 48.8 nM
IC50 [35]: 114 nM
IC50 [36]: 129 nM
IC50 [37]: > 256 nM
IC50 [38]: 135 nM
IC50 [39]: 80.9 nM
IC50 [40]: 104 nM
IC50 [41]: 45.1 nM
IC50 [42]: 25.4 nM
IC50 [43]: 20.5 nM
IC50 [44]: > 256 nM
IC50 [45]: 60.1 nM
IC50 [46]: > 256 nM
IC50 [47]: 47.9 nM
IC50 [48]: > 256 nM

Cc1ccc(-c2c(C(=O)CCl)n(CCCO)c3ncnc(N)c23)cc1
IC50 [1]: > 4000 nM
IC50 [2]: > 4000 nM
IC50 [3]: > 4000 nM
IC50 [4]: > 4000 nM
IC50 [5]: > 4000 nM
IC50 [6]: > 4000 nM
IC50 [7]: > 4000 nM
IC50 [8]: > 4000 nM
IC50 [9]: > 4000 nM
IC50 [10]: 2520 nM
IC50 [11]: > 4000 nM
IC50 [12]: > 4000 nM
IC50 [13]: 3280 nM
IC50 [14]: > 4000 nM
IC50 [15]: > 4000 nM
IC50 [16]: > 4000 nM
IC50 [17]: > 4000 nM
IC50 [18]: > 4000 nM
IC50 [19]: > 4000 nM
IC50 [20]: > 4000 nM
IC50 [21]: > 4000 nM
IC50 [22]: > 4000 nM
IC50 [23]: > 4000 nM
IC50 [24]: 3940 nM
IC50 [25]: > 4000 nM
IC50 [26]: > 4000 nM
IC50 [27]: > 4000 nM
IC50 [28]: 978 nM
IC50 [29]: > 4000 nM
IC50 [30]: > 4000 nM
IC50 [31]: > 4000 nM
IC50 [32]: > 4000 nM
IC50 [33]: 2770 nM
IC50 [34]: > 4000 nM
IC50 [35]: > 4000 nM
IC50 [36]: > 4000 nM
IC50 [37]: > 4000 nM
IC50 [38]: 1400 nM
IC50 [39]: > 4000 nM
IC50 [40]: > 4000 nM
IC50 [41]: 3660 nM
IC50 [42]: 1310 nM
IC50 [43]: 3830 nM
IC50 [44]: > 4000 nM
IC50 [45]: > 4000 nM
IC50 [46]: > 4000 nM
IC50 [47]: > 4000 nM
IC50 [48]: > 4000 nM

COc1cc2ncn(-c3cc(OCc4ccccc4C(F)(F)F)c(C(N)=O)s3)c2cc1OC [GW843682X]
IC50 [1]: 30.4 nM
IC50 [2]: > 256 nM
IC50 [3]: > 256 nM
IC50 [4]: 19.9 nM
IC50 [5]: > 256 nM
IC50 [6]: > 256 nM
IC50 [7]: 16.8 nM
IC50 [8]: > 256 nM
IC50 [9]: 42.3 nM
IC50 [10]: 88.3 nM
IC50 [11]: 12.3 nM
IC50 [12]: 44.8 nM
IC50 [13]: 16.4 nM
IC50 [14]: 159 nM
IC50 [15]: 21.2 nM
IC50 [16]: > 256 nM
IC50 [17]: 149 nM
IC50 [18]: 231 nM
IC50 [19]: 50.1 nM
IC50 [20]: 39.9 nM
IC50 [21]: 149 nM
IC50 [22]: 16.2 nM
IC50 [23]: > 256 nM
IC50 [24]: 20.8 nM
IC50 [25]: 24.9 nM
IC50 [26]: 26.9 nM
IC50 [27]: 16 nM
IC50 [28]: 22 nM
IC50 [29]: 11.9 nM
IC50 [30]: > 256 nM
IC50 [31]: 49.9 nM
IC50 [32]: 188 nM
IC50 [33]: 5.83 nM
IC50 [34]: 42.3 nM
IC50 [35]: 17.2 nM
IC50 [36]: 28.1 nM
IC50 [37]: > 256 nM
IC50 [38]: 73.4 nM
IC50 [39]: 16.5 nM
IC50 [40]: 7.53 nM
IC50 [41]: 42.2 nM
IC50 [42]: 25.3 nM
IC50 [43]: 11.3 nM
IC50 [44]: > 256 nM
IC50 [45]: 68.9 nM
IC50 [46]: > 256 nM
IC50 [47]: 59.7 nM
IC50 [48]: 17.9 nM

CC(=O)O[C@H]1C(=O)[C@@]2(C)[C@H]([C@H](OC(=O)c3ccccc3)[C@]3(O)C[C@H](OC(=O)[C@H](O)[C@@H](NC(=O)c4ccccc4)c4ccccc4)C(C)=C1C3(C)C)[C@]1(OC(C)=O)CO[C@@H]1C[C@@H]2O [PACLITAXEL]
IC50 [1]: 14.8 nM
IC50 [2]: > 102 nM
IC50 [3]: > 102 nM
IC50 [4]: 8.45 nM
IC50 [5]: > 102 nM
IC50 [6]: > 102 nM
IC50 [7]: 3.71 nM
IC50 [8]: > 102 nM
IC50 [9]: 26.9 nM
IC50 [10]: 84.5 nM
IC50 [11]: 4.34 nM
IC50 [12]: 12.8 nM
IC50 [13]: 8 nM
IC50 [14]: 79.1 nM
IC50 [15]: 23.8 nM
IC50 [16]: > 102 nM
IC50 [17]: 23.6 nM
IC50 [18]: > 102 nM
IC50 [19]: 7.48 nM
IC50 [20]: > 102 nM
IC50 [21]: 41.1 nM
IC50 [22]: 8.18 nM
IC50 [23]: > 102 nM
IC50 [24]: 21.9 nM
IC50 [25]: 74.6 nM
IC50 [26]: 1.49 nM
IC50 [27]: > 102 nM
IC50 [28]: 4.91 nM
IC50 [29]: 9.14 nM
IC50 [30]: > 102 nM
IC50 [31]: 8.52 nM
IC50 [32]: 77.5 nM
IC50 [33]: 1.3 nM
IC50 [34]: 10.3 nM
IC50 [35]: 2.98 nM
IC50 [36]: 11 nM
IC50 [37]: > 102 nM
IC50 [38]: 4.01 nM
IC50 [39]: 86.4 nM
IC50 [40]: 15 nM
IC50 [41]: 6.62 nM
IC50 [42]: 7.66 nM
IC50 [43]: 9.6 nM
IC50 [44]: > 102 nM
IC50 [45]: 25.3 nM
IC50 [46]: > 102 nM
IC50 [47]: 7.2 nM
IC50 [48]: 5.7 nM

Source: ChEMBL document CHEMBL1201861, “Genomics of Drug Sensitity in Cancer screening data, Wellcome Trust Sanger Institute”
